Patent US20070292351A1, “Assay for efficacy of histone deacetylase inhibitors” (Methylgene, Inc., priority 2006, published 2007)

What was measured:
[1] = tested on: human H460 tumors in mice; assay: Microarray gene expression analysis, implanted H460 tumors in vivo
Experimental: Biological analysis was performed using Biointerpreter software.
Human non-small cell lung carcinoma NSCLC-H460 cells (2 million) were injected subcutaneously in the animal flank and allowed to form solid tumors. Tumor fragments were passaged in animals for a minimum of three times before their use. Tumor fragments (about 30 mg) were implanted subcutaneously through a small surgical incision under general anesthesia to Balb/cA female nude mice (6-8 weeks old). Recipient animals were treated with either vehicle (0.1 N HCl) or MGCD0103 (2HBr salt, in 0.1 N HCl) 100 mg/kg orally. Tumors were harvested after one dose of either 6 hour or 24 hours post administration of vehicle or MGCD0103. Each experimental group contained 3 animals. Tumor tissues were deposited in RNAlater (Qiagen, Missisauga Ontario) for total RNA extraction.

[2] = tested on: human colon cancer HCT15 cells; assay: RT-PCR of MT3 transcription in HCT15 cells; assay type: cell-based
Experimental: FIG. 1. […] HCT15 cells were treated with HDAC inhibitors or indicated compounds for 16 hours before total RNAs are isolated. RNA levels of MT3 were measured by real-time RT-PCR and are subsequently normalized against β-actin.
Colon cancer HCT15 cells were exposed to 1 μM MGCD0103 for various amounts of time, and MT3 RNA levels were monitored by conventional semi-quantitative RT-PCR. Maximal induction is achieved between 8 h and 24 h of exposure and maintained through 72 h.
(§1) RNA was extracted from 8×10^6 cells using the Qiagen RNeasy Mini kit (cat#74106, Qiagen, Missisauga Ont.) following the manufacturer's instructions. RT reaction was performed using the Expand Reverse Transcriptase kit from Roche (Cat#1 785 834 Roche Applied Biosciences, Laval, Que) with 1 μg total RNA together with 1 μl oligo(dT) primer (cat#y01212, Invitrogen-Canada, Burlington, Ont). cDNA was synthesized using an Eppendorf Mastercycler gradient PCR apparatus (Brinkmann Instruments Canada LTD., Mississauga, Ontario), using a two cycle protocol. For the 1st cycle reaction mixture (0.5 μl H2O, 4 μl of 5× Buffer, 2 μl DTT, 2 ul of 10 mM dNTPs, 0.5 μl RNAsin (cat#N211B, Promega, Fisher Scientific, Whitby, Ont.) and […] of the Expand Reverse Transcriptase (Cat#1785834, Roche, Laval, Quebec)) was incubated at 65° C. for 10 minutes and then set on ice. A second cycle was performed at 42° C. for 1 hour. The resulting cDNA products were kept at 4° C. until used.
One ul of the resulting cDNA was used for every amplification reaction with 18.9 ul H2O, 1.25 ul of 10 mM dNTPs, 0.5 ul of each primer pair, 2.5 ul of 10× Buffer. The PCR reaction was carried out in an Eppendorf Mastercycler gradient. The sequences of the primers used for the amplification of selected biomarkers, as well as the details of the PCR reaction cycles are featured below. All buffers came from Expand Long Template PCR system (Roche, Laval, Quebec, Cat#11681842001). All primers were synthesized by Invitrogen (Invitrogen-Canada, Burlington, Ont.)
Analysis of transcripts was performed using STORM 860 (Amersham Biosciences, Baie d'Urfe, Qubec). Transcription of genes was normalized to transcription of actin, which was performed in the same RT-PCR reaction. The relative expression level of gense was normalized to baseline signals.
Quantitative PCR with SYBR Green I detection with Mastercycler® ep realplex (Eppendorf) was performed using LightCycler® 480 SYBR Green I Master (Roche Diagnostics). SYBR Green I assays were performed with 600 nM primers. All other reaction conditions were as described by the manufacturer. Amplification conditions were 5 minutes of initial denaturation at 95° C., followed by 40 cycles of each 15 seconds at 95° C., 15 seconds at 63.4° C., 20 seconds at 68° C., a melting curve from 60° C. to 95° C. was recorded. Quantification was performed using Pfaffl method, a relative quantification method in real-time PCR (Nucleic Acids Research 2001 29:2002-2007). Primers were synthesized by Invitrogen (Invitrogen-Canada, Burlington, Ont.).

RPMI-8226 myeloma cells = assay: RT-PCR of MT3 transcription in RPMI-8226 cells; assay type: cell-based, human; conditions: 16 h, semi-quantitative RT-PCR (FIG. 2)
Experimental: as §1
One ul of the resulting cDNA was used for every amplification reaction with 18.9 ul H2O, 1.25 ul of 10 mM dNTPs, 0.5 ul of each primer pair, 2.5 ul of 10× Buffer. The PCR reaction was carried out in an Eppendorf Mastercycler gradient. The sequences of the primers used for the amplification of selected biomarkers, as well as the details of the PCR reaction cycles are featured below. […]

peripheral white cells = assay: Cytokine/chemokine transcription in peripheral white cells of AML patients treated in vivo; design: species or system human; conditions: for induction of transcription of IL-6, IL-8, IL-1b, MIP1b: in vivo
Experimental: FIG. 15 Induction of transcription of IL-6, IL-8, IL-1b, MIP1b cytokine/chemokines by MGCD0103 in peripheral white cells ex vivo from a MDS patient and in vivo in an AML patient with response (Patient J).
Whole blood from either consenting healthy volunteers or consenting patients was centrifuged at 2500 rpm for 10 minutes at ambient temperature in a Sorvall RT-7 centrifuge (Mandel Scientific Co., Guelph, Ontario). Plasma was removed and buffy coat was collected. Five volumes of Erythrocyte Lysis Buffer (EL) (Qiagen Canada Inc., Mississauga, Ontario) were added into buffy coat. Buffy coat was incubated on ice for 20 minutes before it was centrifuged at 400 g for 10 minutes at 4° C. Supernatant was removed and buffy coat was washed twice with EL buffer and re-centrifuged. Buffy coat was resuspended in RPMI media and cells were counted with trypan blue exclusion. To isolate PBMCs, buffy coat cells were centrifuged over Lymphoprep (Axis-Shield, 1114544), and any remaining erythrocytes in the sample were lysed by treatment with EL lysis buffer (Qiagen, 79217). The cell pellets are washed and then re-suspended in RPMI containing 10% FBS.
Human patients with either solid tumors or leukemia/MDS diseases were enrolled in phase I studies with consensus forms. MGCD0103 were dosed into patients orally every other day (day 1, day 3, day 5 […]). Blood samples were withdrawled by using the Vacutainer sodium-heparin blood collection tubes (Becton Dickinson Laboratories, Franklin Lakes, N.J.) and shipped to the test site within 24 hours on ice-pack. Baseline samples were drawn immediately prior to the first drug dose, while the 24 hour samples were drawn at 24 hours post the first drug dose. The 48 hours samples were drawn at 48 hours post the first dose. For the 1 week samples, blood was drawn 72 hours after day 5 dose (3 accumulated doses during week 1).

SMILES: Nc1ccccc1NC(=O)c1ccc(CNc2nccc(-c3cccnc3)n2)cc1 [MGCD0103]
- Fold induction of CDKN1C transcription [1]: 3.1 fold
- Fold induction of CXCL14 transcription [1]: 3.4 fold
- Fold induction of IER3 transcription [1]: 3.2 fold
- Fold induction of KRTHA2 transcription [1]: 2.6 fold
- Fold induction of MT3 transcription [1]: 2.2 fold
- Fold induction of PROM1 transcription [1]: 3.1 fold
- Fold induction of SNIP transcription [1]: 2.8 fold
- Fold induction of SOD2 transcription [1]: 2.8 fold
- Fold induction of TNF transcription [1]: 2.8 fold
- Time-dependent induction of MT3 transcription ([2]; 1 uM (FIG. 3)): Time-dependent induction
- time through which maximal MT3 induction is maintained ([2]; 1 uM (FIG. 3)): ≥ 72 h
- Dose-dependent induction of MT3 transcription ([2]; 16 h, semi-quantitative RT-PCR (FIG. 2)): Dose-dependent induction
- Induction of transcription of MT3 ([2]; 16 hours, real-time RT-PCR normalized against beta-actin (FIG. 1)): induced
- Dose-dependent induction of MT3 transcription (RPMI-8226 myeloma cells): Dose-dependent induction
- expression level of other cytokine/chemokines (peripheral white cells; ex vivo/in vivo in patients (data not shown)): either decreased or remained unmodified
- induction of transcription of IL-6, IL-8, IL-1b, MIP1b (peripheral white cells; AML patient with response (Patient A) (FIG. 15)): induction
- induction of transcription of IL-6, IL-8, IL-1b, MIP1b (peripheral white cells; two AML patients without clinical response (Patient B, C) (FIG. 15)): No such induction
